# Results as given in patent US7115797B2, “Mice lacking inward-rectifying potassium channel Kir6.1” (JCR Pharmaceuticals Co., Ltd., priority 2002, dated 2006).
# Columns and labels:
# [1] = system: ventricular cells; test: Whole-cell membrane currents of isolated ventricular cells (patch-clamp, ramp-pulse protocol); type: cell-based, mouse; settings: ventricular cells of both Kir6.1+/+ and Kir6.1-/- mice
# Method: (§1) Kir6.1 is expressed most abundantly in the heart (24), and is present in cardiomyocytes (25). Therefore, electrophysiological properties of ventricular myocytes isolated from Kir6.1^+/+ and Kir6.1^−/− mice were compared. The quasi-steady-state membrane currents were recorded using a ramp-pulse protocol.
# (§2) Briefly, single ventricular cells of the heart were enzymatically isolated and whole-cell membrane currents were recorded by the patch-clamp method (13). The pipette solution was composed of 20 mM KCl, 1 mM MgCl2, 1 mM phosphocreatine-K2, 110 mM K1-aspartate, 1 mM K2-ATP, 1.0 mM EGTA, 5 mM HEPES (pCa 8.0, pH 7.4). The external solution used was a HEPES-Tyrode solution containing 143 mM NaCl, 5.4 mM KCl, 1.8 mM CaCl2, 0.5 mM MgCl2, 0.33 mM NaHPO4, […], 5 mM HEPES (pH 7.4). Voltage- and current-clamp experiments in heart cells were performed at 36.0° C.
# [2] = system: ventricular cells; test: Action potential recording in isolated ventricular cells (current-clamp); type: cell-based, mouse; settings: for APD at 90% repolarization level (APD90): mean±SE
# Method: as §1, §2
# [3] = system: aorta smooth muscle cells; test: Whole-cell membrane currents of aorta smooth muscle cells; type: cell-based, mouse; settings: for density of pinacidil-induced, glibenclamide-sensitive inward K+ current: held at -40 mV, high K+ (140 mM) solution, mean±SE
# Method: Single smooth muscle cells of thoracic aorta were enzymatically isolated and electrophysiological studies were conducted in the same manner as performed in the cardiomyocytes.
# The compositions of the extracellular high K^+ solution and the pipette solution used in this smooth muscle cell experiment were as follows. The external high-K^+ solution: 2.9 mM NaCl, 140 mM KCl, 2.2 mM CaCl2, 1.2 mM MgCl2, 14 mM glucose and 10 mM HEPES-KOH buffer (pH 7.4). The pipette solution: 140 mM KCl, 4 mM MgCl2, 1 mM ATP-K2, 10 mM EGTA and 10 mM HEPES-KOH solution (pH 7.2). The membrane current was measured at room temperature.
# Effect of […] pinacidil was tested on whole-cell membrane currents of aorta smooth muscle cells held at −40 mV in high K^+ (140 mM) solution.
# [4] = system: anesthetized mice; test: Induction of coronary spasm by methylergometrine in vivo (ECG of anesthetized mice)
# Method: (§3) ECG recordings of conscious mice under unrestricted conditions were obtained using an implantable radio frequency transmitter (TA10ETA-F20) (DATA SCIENCES, St. Paul, Minn.), with subcutaneous leads placed in the conventional lead II position. ECGs of anesthetized mice and isolated hearts (Langendorff-perfused heart) were recorded with leads placed on the body surface (lead II) or epicardium.
# (§4) To link dysregulation of vascular tonus and sudden death in Kir6.1^−/− mice, an examination was tried to induce vasospasm using methylergometrine, an ergot alkaloid that stimulates serotonergic receptors and directly triggers the vasoconstriction of vascular smooth muscles (26).
# [5] = system: Langendorff-perfused hearts; test: Induction of coronary spasm by methylergometrine in vitro (ECG of Langendorff-perfused hearts); design: species or system mouse; settings: 20 mg
# Method: as §3, §4
# [6] = system: anesthetized mice; test: Measurement of aortic blood pressure (mean arterial pressure) in anesthetized mice; type: in vivo, mouse; settings: Kir6.1+/+ mice; intravenous 0.3 mg/kg; within 5 minutes; urethane anesthesia
# Method: K^+ channel openers are known to lower arterial blood pressure by relaxing vascular smooth muscles by opening vascular KATP channels. The present inventors examined the vasodilation response to the K^+ channel opener pinacidil in Kir6.1^+/+ and Kir6.1^−/− mice, in vivo at first.
# Hemodynamic measurements were carried out according to the method described by, Suzuki, et al. (12). Changes of mean arterial pressure (MAP) after intravenous injection of 0.3 mg/kg pinacidil are indicated on the ordinate. The points show mean±SE of 6 animals for both groups.
# [7] = system: aortic rings; test: Aortic contraction in isolated aortic preparation (tension of thoracic aortic rings precontracted by norepinephrine); type: cell-based, mouse; settings: precontracted by 0.1 μM norepinephrine, cumulative pinacidil
# Method: The vasodilation response of thoracic aorta to the K^+ channel opener was further examined in vitro by measuring changes in the tension of aortic rings isolated from Kir6.1^+/+ and Kir6.1^−/− mice (FIG. 12). In the same manner as described by Suzuki et al. (13), mechanical function studies of isolated thoracic aorta were carried out. Briefly, the thoracic aorta without the endothelium was removed and cut into rings (4 mm in length). For isometric tension recording, the rings were mounted in a thermostatic organ bath. The bath was perfused with Krebs-Henseleit solution gassed with 95% O2/5% CO2. The aortic rings were precontracted by 0.1 μM norepinephrine, and pinacidil was added in a cumulative manner.
# [8] = anesthetized Kir6.1-/- mice, intravenous injection 20 mg
smiles,measurement,setting,value
COc1ccc(Cl)cc1C(=O)NCCc1ccc(S(=O)(=O)NC(=O)NC2CCCCC2)cc1 [glibenclamide],block of pinacidil-induced outward current,[1]; 1 μM glibenclamide,blocked
same,reversal of pinacidil-induced APD90 shortening,"[2]; addition of 1 μM glibenclamide after 100 μM pinacidil, Kir6.1+/+ and Kir6.1-/- cells",reversed to control levels
same,block of pinacidil-elicited inward K+ currents,[3]; Kir6.1+/+ smooth muscle cells,blocked
CC[C@@H](CO)NC(=O)[C@@H]1C=C2c3cccc4[nH]cc(c34)C[C@H]2N(C)C1 [methylergometrine],significant changes in ECG or death (animals affected),"[4]; Kir6.1+/+ mice, intravenous injection",none of 7
same,cardiac death concomitantly with changes in ECG (animals affected),"[4]; Kir6.1-/- mice, intravenous injection 20 mg",5 Kir6.1^−/− mice out of 8
same,depression of ST segments on ECG (animals affected),[4]; [8],1 animal out of 8
same,elevation of ST segments on ECG (animals affected),[4]; [8],4 animals out of 8
same,elevation of the ST segment in isolated hearts (hearts affected),[5]; isolated hearts of Kir6.1+/+ mice,0/5
same,elevation of the ST segment in isolated hearts (hearts affected),[5]; isolated hearts of Kir6.1-/- mice,4/4
CC(N/C(=N\C#N)Nc1ccncc1)C(C)(C)C (centres unmarked) [pinacidil],"outward current (ATP-sensitive K+ current, IK,ATP)","[1]; pinacidil 1, 10 or 100 μM, 36.0° C",concentration-dependent increases of an outward current
same,APD at 90% repolarization level (APD90),"[2]; Kir6.1+/+ ventricular cells, after 100 μM pinacidil (before: 31.6±2.3 ms)",18.3 ± 2.2 ms
same,APD at 90% repolarization level (APD90),"[2]; Kir6.1-/- ventricular cells, after 100 μM pinacidil (before: 31.1±4.2 ms)",18.3 ± 3.9 ms
same,decrease in MAP,[6],about 30 mmHg
same,vasodilating effect,[7]; aortic rings from Kir6.1+/+ mice,concentration-dependent vasodilating effect
same,vasodilating effect,[7]; aortic rings from Kir6.1-/- mice,din not elicit any KATP channel-mediated vasodilating effect
same,"density of pinacidil-induced, glibenclamide-sensitive inward K+ current",[3]; Kir6.1+/+ smooth muscle cells,9.53±2.32 pA/pF
same,"density of pinacidil-induced, glibenclamide-sensitive inward K+ current",[3]; Kir6.1-/- smooth muscle cells,0.13±0.07 pA/pF
